Experiments:
A549 shMET cells = assay: long-term survival, A549 shSCR vs shMET; assay type: cell-based; conditions: β-lap 2 h
Procedure: LC50 values were calculated from long-term cell survival graphs using GraphPad PRISM; ND denotes Not Determined even at the highest concentration presented. All error bars represent the mean±SEM. **** p<0.0001, *** p<0.001, ** p<0.01, *p<0.05.

[1] = system: 53BP1 foci (DSBs) in A549 NSCLC; assay: 53BP1 foci formation, A549; assay type: cell-based; conditions: A549, sub-lethal β-lap 3 μM for 2 h, monitored 24 h
Procedure: FIG. 3D. Graphical representation of average 53BP1 foci formation per nucleus at indicated treatment conditions: criz (1 μM), β-lap (3 μM), and DIC separately or in combination.
FIG. 3E Graph showing quantification of DSB formation (% cells with ≥5 53BP1 foci) following exposure of A549 shSCR vs shMET cells to indicated agents for 2 h (in red arrow), washed out and monitored up to 24 h to determine DSB repair kinetics.

[2] = system: cellular hydrogen peroxide (H2O2) levels in A549 cells; assay: ROS-Glo H2O2 Assay; assay type: cell-based; conditions: A549, β-lap 3 μM, within 15 min, further increased at two hours
Procedure: FIG. 2-1A. […] Growth media was then replaced with fresh media containing β-lap (3 μM) alone, criz alone (1 μM) or combination±DIC (50 μM) and collected at 15 and 120 min to measure H2O2 production using the ROS-Glo™ H2O2 Assay from Promega (Madison, WI). The assay was performed in three biological replicates.
(§1) Next, we sought to investigate the mechanistic role of cMET in promoting resistance to ROS-induced DNA lesions caused by the futile redox cycling of β-lap with NQO1. […] In response to H2O2 stimulation, cMET can translocate into the nucleus where it interacts with PARP1 for activation to enhance the repair of ROS-induced DNA damage. […] Next we performed PARP1 immunoprecipitation studies to determine whether it associates with activated cMET in the nucleus following treatment with β-lap at increasing doses.

pY1234-cMET / PARP1 = assay: PARP1 immunoprecipitation (co-IP); assay type: cell-based; conditions: A549, β-lap 3 and 6 μM for 2 h
Description: as §1

A549 shMET = assay: migration and invasion, A549 shSCR versus shMET; assay type: cell-based; conditions: β-lap 3 μM 2 h, p<0.001
Procedure: FIG. 4H. Representative images of A549 shSCR versus shMET migration at 16 h following treatments with DMSO-treated control and β-Lap (3 μM) for 2 h. Scale bars, 50 μm;
FIG. 4I. Bar graph showing quantification of cell migration expressed as a percent of control (vehicle). Quantitative data were shown as the mean±SEM. **** p<0.0001, ** p<0.01, *p<0.05, ns=not significant.
FIG. 4J. Representative images of A549 shSCR versus shMET invasion using a matrigel-coated transwell system at 16 h following treatments with DMSO-treated control and β-Lap (3 μM) for 2 h. Scale bars, 50 μm;
FIG. 4K. Bar graph showing quantification of cell invasion expressed as a percent of control (vehicle). Quantitative data were shown as the mean±SEM. **** p<0.0001, ** p<0.01, *p<0.05, ns=not significant.
FIG. 4-1B. Bar graph illustrating percentage wound closure at indicated time points in A549 shSCR versus shMET treated with vehicle control or non-lethal β-lap for 2 h. Two-way ANOVA was used for statistical analyses; * p<0.05.
Overexpression of cMET in many cancers, including NSCLC and PDAC, is known to enhance cancer cell mobility, migration, and invasion (Spina, et al., Biomedicines 2015, 3(1), 71-88). […]

[3] = system: A549 NSCLC with transient MET knockdown (siMET); assay: long-term survival, A549 transient MET knockdown; conditions: A549, two different siRNAs
Procedure: Graph showing relative long-term survival studies in A549 NSCLC with transient MET knockdown (siMET) compared to siSCR control. β-lap was added±DIC (50 μM) for 2 h after RNAi transfection (48 h) with two different siRNA sequences.
Next, we investigated whether loss of cMET activity arising from genetic depletion of MET expression could enhance the therapeutic effect of β-lap at lower concentrations.

[4] = system: Vimentin protein expression in A549 shSCR; assay: Western blot of Vimentin, A549 shSCR versus shMET; assay type: cell-based; conditions: sub-lethal β-lap 2 h, further reduced in shMET
Procedure: FIG. 4-1C. Western blot analysis of Vimentin protein expression in A549 shSCR versus shMET treated with vehicle control or non-lethal β-lap doses for 2 h.
Overexpression of cMET in many cancers, including NSCLC and PDAC, is known to enhance cancer cell mobility, migration, and invasion (Spina, et al., Biomedicines 2015, 3(1), 71-88). […] Thus, we investigated whether treatment with non-lethal β-lap in combination with inhibition of cMET activity (i.e., via pharmacological or genetic interventions) can target and mitigate cancer invasion or migration using Boyden chamber (Chen, Methods Mol Biol 2005, 294, 15-22; Eccles, et al., Biotechnol Annu Rev 2005, 11, 391-421) and wound-healing (Liang, et al., Nat Protoc 2007, 2(2), 329-33) assays. […] Likewise, we noted a decrease in the expression of a transcription factor that promotes invasion and migration, Twist (Khan et al., Tumour Biol 2013, 34(5), 2497-506), with the combination treatment relative to vehicle control (FIG. 4E, G). Addition of DIC to the combination treatment reverted Twist and E-cadherin protein expression to almost similar level as vehicle-treated control. shRNA mediated knockdown of cMET expression in A549 and Capan2 decreased their migratory and invasive phenotypes relative to their corresponding shSCR controls, which is consistent with the canonical role of cMET in invasive cancers. […]

[5] = HPBCD formulation; cited from earlier work

For CC1(C)CCC2=C(O1)c1ccccc1C(=O)C2=O [β-lap, β-Lapachone], the “sensitivity to β-lap compared to shSCR control” value (A549 shMET cells) was “hypersensitivity”, the “DSB formation and repair” value [1] was “induced formation of DSBs that were easily repaired” and the “relative amount of cellular H2O2” value [2] was “significantly increased”. The “pY1234-cMET co-immunoprecipitated with PARP1” value (pY1234-cMET / PARP1) was “increasing levels of pY1234-cMET with PARP1”, the cell invasion (A549 shMET) was “significantly reduces” and the cell migration (A549 shMET) was “significantly reduces”. The “sensitivity to β-lap compared to siSCR control” value [3] was “sensitization”, the Vimentin expression [4] was “decreased Vimentin expression” and the “maximum-tolerated dose (MTD)” value [5] was “about 25 mg/kg”.

Source: US20240197709A1, “POTENTIATING THE TUMOR-SELECTIVE EFFECTS OF NQO1-BIOACTIVATABLE AGENT BY USE OF CMET INHIBITOR” (The Trustees of Indiana University, priority 2022, published 2024)
